{"source": "patent US9265754B2", "about": "“Use of 1-{4-[1-(4-cyclohexyl-3-trifluoromethyl-benzyloxyimino)-ethyl]-2-ethyl-benzyl}-azetidine-3-carboxylic acid in treating symptoms associated with rett syndrome” (Novartis AG, priority 2007, dated 2016)", "key": {"[1]": {"system": "BDNF", "experiment": "In vivo S1P receptor modulator induced BDNF production (Western blot of cortex)", "parameters": "species or system rat", "conditions": "female DA rats", "excerpt": "Shown on the y-axis is the relative intensity of BDNF signal of animals treated with FTY720 vs control animals that had received vehicle (i.e., ratio of signal from FTY720-treated rats divided by signal from vehicle-treated rats, n=3 rats/group). On the x axis, the first two bars come from the frontal cortex, the second two from the parietal cortex and in each case the white bar represents the vehicle treated animals and the black bar represents the FTY720 treated animals.\nN=3 animals each were treated with either vehicle, 0.1 mg/kg/d FTY720, 0.3 mg/kg/d FTY720 or 1 mg/kg/d FTY720.\nFemale DA rats were treated for 9 days (5 days, 2 day pause, 4 days) with FTY720 p.o.\nExpt 1: 0.3 mg/kg/d vs. vehicle.\nOne day after the last treatment, the rats were perfused with ice-cold PBS and different CNS regions were isolated.\nFemale DA rats were treated for 9 days (5 days, 2 day pause, 4 days) with FTY720 p.o. 0.1; 0.3 or 1 mg/kg/d vs vehicle"}, "[2]": {"system": "patients with relapsing MS", "conditions": "cited from earlier work"}, "[3]": {"system": "patients with relapsing MS", "experiment": "Phase II trial in relapsing MS: depressive symptoms by Beck Depression Inventory second edition (BDI-II)", "type": "in vivo, human", "conditions": "for BDI-II score, change from baseline during core study: 6 months core study", "procedure": "In this study, depressive symptoms were assessed by means of the Beck Depression Inventory second edition (BDI-II).\nPatients with relapsing MS (relapsing-remitting or secondary progressive) were randomized to receive placebo or FTY720 1.25 or 5 mg/day, for 6 months (the core study). At the end of this period, placebo-treated patients were re-randomized to one of the two FTY720 doses, while those originally randomized to FTY720 continued treatment at the same doses. After approximately 18-24 months, patients receiving FTY720 5 mg, were switched to 1.25 mg in view of evidence that the higher dose conferred no efficacy benefit over the lower dose.\nThe BDI-II was administered at baseline, and at 3 and 6 months during the core study and at 12 and 24 months during the extension phase (i.e. 6 and 18 months after the start of the extension phase). This is a 21-item self-report scale measuring various symptoms and attitudes associated with depression. Respondents rate depressive symptoms experienced during the past two weeks on a 4-point scale, coded 0 to 3 by increasing order of severity. A total score across all 21 items can be generated, with lower total scores indicating lower overall severity of depressive symptoms. BDI-II total scores of 14 or above are indicative of clinical depression. Ny reduction in the BDI-II score indicated an improvement in depression.\nOf the 281 patients originally randomized to treatment, 255 completed the core study. BDI-II scores at baseline and 6 months were available in 239 patients."}, "[4]": {"conditions": "281 patients with relapsing MS, 6 months, 1.25 and 5 mg once daily"}}, "data": [{"smiles": "CCCCCCCCc1ccc(CCC(N)(CO)CO)cc1", "note": "[FTY720, 2-amino-2-[2-(4-octylphenyl)ethyl]propane-1,3-diol]", "values": [{"measurement": "BDNF in the cortex (relative intensity of BDNF signal vs vehicle)", "setting": "[1]; 9-day treatment, 0.3 mg/kg/d p.o., frontal and parietal cortex, FIG. 1", "value": "induction of BDNF"}, {"measurement": "BDNF in the cortex, multiple doses", "setting": "[1]; 9-day treatment, 0.1, 0.3 or 1 mg/kg/d p.o., FIGS. 2A-2B", "value": "induction of BDNF"}, {"measurement": "reduction of annualized relapse rate compared with placebo", "setting": "[2]; [4]", "value": "more than 50%"}, {"measurement": "reduction of gadolinium-enhanced MRI lesions compared with placebo", "setting": "[2]; [4]", "value": "up to 80%"}, {"measurement": "low disease activity on MRI and relapses during dose-blinded extension phase", "setting": "[2]; patients treated for up to 24 months", "value": "sustained"}, {"measurement": "BDI-II score, change from baseline during core study", "setting": "[3]; 1.25 mg/day", "value": "decreased from baseline"}, {"measurement": "change in BDI-II scores from baseline vs placebo-treated patients", "setting": "[3]; 1.25 mg/day, at 6 months", "value": "significantly greater"}, {"measurement": "BDI-II score, change from baseline during core study", "setting": "[3]; 5.0 mg/day", "value": "remained consistent"}, {"measurement": "difference in changes in BDI-II scores between the two doses", "setting": "[3]; 1.25 vs 5.0 mg/day, 5% level", "value": "not significant"}]}]}
